Results published in US20100189683A1, “Pulsatile Dosing of Gossypol for Treatment of Disease” (Ascenta Therapeutics, Inc., priority 2008, published 2010).

Tested on: patients with advanced cancer
Test: Phase I clinical trial, daily versus pulsatile dosing of (−)-gossypol: adverse events graded by NCI-CTCAE v3 (Daily N = 38, BID × 3 d N = 21, Weekly N = 12)
Format: in vivo, human
Method: A phase I clinical trial was carried out to compare the maximum tolerated dose and safety of daily (i.e., continuous) versus pulsatile (i.e., intermittent) dosing of (−)-gossypol in patients with advanced cancer. A secondary objective of this study was to identify any anti-tumor activity of (−)-gossypol. Patients were treated with increasing doses of (−)-gossypol according to the following dosing schedules: “Daily” dosing: 5 to 60 mg/day of (−)-gossypol on 21 days per 28 day cycle; “BID×3d” dosing: 30 to 80 mg BID of (−)-gossypol on 3 consecutive days (e.g., Monday-Tuesday-Wednesday) repeated every other week per 28 day cycle; and “Weekly” dosing: 80 to 200 mg of (−)-gossypol once weekly per 28 day cycle. Adverse events (AEs) were graded by NCI-CTCAE v3.

Cc1cc2c(C(C)C)c(O)c(O)c(C=O)c2c(O)c1-c1c(C)cc2c(C(C)C)c(O)c(O)c(C=O)c2c1O [(−)-gossypol]
ALT increase (BID × 3 d, Grade ½): 2 (10) N (%) | AST increase (BID × 3 d, Grade ½): 2 (10) N (%) | Abdominal discomfort (BID × 3 d, Grade ½): 1 (5) N (%) | Abdominal distention (BID × 3 d, Grade ½): 3 (14) N (%) | Abdominal pain (BID × 3 d, Grade ½): 5 (24) N (%) | Albumin decreased (BID × 3 d, Grade ½): 0 N (%) | Alkaline phosphatase increase (BID × 3 d, Grade ½): 2 (10) N (%) | Anorexia or decreased appetite (BID × 3 d, Grade ½): 10 (48) N (%) | Any AE (BID × 3 d, Grade ½): 16 (76) N (%) | Back pain (BID × 3 d, Grade ½): 1 (5) N (%) | Constipation (BID × 3 d, Grade ½): 6 (29) N (%) | Cough (BID × 3 d, Grade ½): 0 N (%) | Creatinine increased (BID × 3 d, Grade ½): 2 (10) N (%) | Creatinine phosphokinase increase (BID × 3 d, Grade ½): 0 N (%) | Dehydration (BID × 3 d, Grade ½): 3 (14) N (%) | Diarrhea (BID × 3 d, Grade ½): 8 (38) N (%) | Dizziness (BID × 3 d, Grade ½): 2 (10) N (%) | Dry mouth (BID × 3 d, Grade ½): 2 (10) N (%) | Dysgeusia (BID × 3 d, Grade ½): 2 (10) N (%) | Dyspnea (BID × 3 d, Grade ½): 5 (24) N (%) | Fatigue/Asthenia (BID × 3 d, Grade ½): 15 (72) N (%) | Flatulence (BID × 3 d, Grade ½): 2 (10) N (%) | Headache (BID × 3 d, Grade ½): 1 (5) N (%) | Hepatic encephalopathy (BID × 3 d, Grade ½): 0 N (%) | Hyperbilirubinaemia (BID × 3 d, Grade ½): 0 N (%) | Hyperkalemia (BID × 3 d, Grade ½): 1 (5) N (%) | Hypocalcemia (BID × 3 d, Grade ½): 0 N (%) | Hypokalemia (BID × 3 d, Grade ½): 1 (5) N (%) | Hyponatremia (BID × 3 d, Grade ½): 1 (5) N (%) | Infection (BID × 3 d, Grade ½): 0 N (%) | Insomnia (BID × 3 d, Grade ½): 1 (5) N (%) | Mental status changes (BID × 3 d, Grade ½): 0 N (%) | Nausea (BID × 3 d, Grade ½): 14 (67) N (%) | Pain (BID × 3 d, Grade ½): 3 (14) N (%) | Pancreatitis (BID × 3 d, Grade ½): 0 N (%) | Peripheral edema (BID × 3 d, Grade ½): 0 N (%) | Pleural Effusion (BID × 3 d, Grade ½): 0 N (%) | Pneumatosis intestinalis (BID × 3 d, Grade ½): 0 N (%) | Pneumonia (BID × 3 d, Grade ½): 0 N (%) | Proteinurea (BID × 3 d, Grade ½): 2 (10) N (%) | Pyrexia (BID × 3 d, Grade ½): 3 (14) N (%) | Renal Failure (BID × 3 d, Grade ½): 0 N (%) | Sinusitis (BID × 3 d, Grade ½): 0 N (%) | Small intestinal obstruction (ileus) (BID × 3 d, Grade ½): 0 N (%) | Troponin I or T increased (BID × 3 d, Grade ½): 1 (5) N (%) | Urinary Tract Infection (BID × 3 d, Grade ½): 2 (10) N (%) | Vomiting (BID × 3 d, Grade ½): 9 (43) N (%) | Weight decreased (BID × 3 d, Grade ½): 4 (19) N (%) | White blood cells increased (BID × 3 d, Grade ½): 2 (10) N (%) | ALT increase (BID × 3 d, Grade ¾): 0 N (%) | AST increase (BID × 3 d, Grade ¾): 0 N (%) | Abdominal discomfort (BID × 3 d, Grade ¾): 0 N (%) | Abdominal distention (BID × 3 d, Grade ¾): 0 N (%) | Abdominal pain (BID × 3 d, Grade ¾): 2 (10) N (%) | Albumin decreased (BID × 3 d, Grade ¾): 0 N (%) | Alkaline phosphatase increase (BID × 3 d, Grade ¾): 0 N (%) | Anorexia or decreased appetite (BID × 3 d, Grade ¾): 1 (5) N (%) | Any AE (BID × 3 d, Grade ¾): 11 (52) N (%) | Back pain (BID × 3 d, Grade ¾): 0 N (%) | Constipation (BID × 3 d, Grade ¾): 0 N (%) | Cough (BID × 3 d, Grade ¾): 0 N (%) | Creatinine increased (BID × 3 d, Grade ¾): 0 N (%) | Creatinine phosphokinase increase (BID × 3 d, Grade ¾): 1 (5) N (%) | Dehydration (BID × 3 d, Grade ¾): 2 (10) N (%) | Diarrhea (BID × 3 d, Grade ¾): 1 (5) N (%) | Dizziness (BID × 3 d, Grade ¾): 0 N (%) | Dry mouth (BID × 3 d, Grade ¾): 0 N (%) | Dysgeusia (BID × 3 d, Grade ¾): 0 N (%) | Dyspnea (BID × 3 d, Grade ¾): 0 N (%) | Fatigue/Asthenia (BID × 3 d, Grade ¾): 1 (5) N (%) | Flatulence (BID × 3 d, Grade ¾): 0 N (%) | Headache (BID × 3 d, Grade ¾): 0 N (%) | Hepatic encephalopathy (BID × 3 d, Grade ¾): 1 (5) N (%) | Hyperbilirubinaemia (BID × 3 d, Grade ¾): 1 (5) N (%) | Hyperkalemia (BID × 3 d, Grade ¾): 1 (5) N (%) | Hypocalcemia (BID × 3 d, Grade ¾): 0 N (%) | Hypokalemia (BID × 3 d, Grade ¾): 3 (14) N (%) | Hyponatremia (BID × 3 d, Grade ¾): 1 (5) N (%) | Infection (BID × 3 d, Grade ¾): 0 N (%) | Insomnia (BID × 3 d, Grade ¾): 0 N (%) | Mental status changes (BID × 3 d, Grade ¾): 0 N (%) | Nausea (BID × 3 d, Grade ¾): 0 N (%) | Pain (BID × 3 d, Grade ¾): 1 (5) N (%) | Pancreatitis (BID × 3 d, Grade ¾): 1 (5) N (%) | Peripheral edema (BID × 3 d, Grade ¾): 0 N (%) | Pleural Effusion (BID × 3 d, Grade ¾): 0 N (%) | Pneumatosis intestinalis (BID × 3 d, Grade ¾): 1 (5) N (%) | Pneumonia (BID × 3 d, Grade ¾): 1 (5) N (%) | Proteinurea (BID × 3 d, Grade ¾): 0 N (%) | Pyrexia (BID × 3 d, Grade ¾): 0 N (%) | Renal Failure (BID × 3 d, Grade ¾): 1 (5) N (%) | Sinusitis (BID × 3 d, Grade ¾): 0 N (%) | Small intestinal obstruction (ileus) (BID × 3 d, Grade ¾): 1 (5) N (%) | Troponin I or T increased (BID × 3 d, Grade ¾): 0 N (%) | Urinary Tract Infection (BID × 3 d, Grade ¾): 0 N (%) | Vomiting (BID × 3 d, Grade ¾): 2 (10) N (%) | Weight decreased (BID × 3 d, Grade ¾): 0 N (%) | White blood cells increased (BID × 3 d, Grade ¾): 0 N (%) | ALT increase (Daily, Grade ½): 7 (18) N (%) | AST increase (Daily, Grade ½): 6 (16) N (%) | Abdominal discomfort (Daily, Grade ½): 0 N (%) | Abdominal distention (Daily, Grade ½): 4 (11) N (%) | Abdominal pain (Daily, Grade ½): 8 (21) N (%) | Albumin decreased (Daily, Grade ½): 0 N (%) | Alkaline phosphatase increase (Daily, Grade ½): 6 (16) N (%) | Anorexia or decreased appetite (Daily, Grade ½): 19 (50) N (%) | Any AE (Daily, Grade ½): 38 (100) N (%) | Back pain (Daily, Grade ½): 6 (16) N (%) | Constipation (Daily, Grade ½): 9 (24) N (%) | Cough (Daily, Grade ½): 8 (21) N (%) | Creatinine increased (Daily, Grade ½): 6 (16) N (%) | Creatinine phosphokinase increase (Daily, Grade ½): 0 N (%) | Dehydration (Daily, Grade ½): 9 (24) N (%) | Diarrhea (Daily, Grade ½): 13 (34) N (%) | Dizziness (Daily, Grade ½): 7 (18) N (%) | Dry mouth (Daily, Grade ½): 3 (8) N (%) | Dysgeusia (Daily, Grade ½): 2 (5) N (%) | Dyspnea (Daily, Grade ½): 6 (16) N (%) | Fatigue/Asthenia (Daily, Grade ½): 31 (81) N (%) | Flatulence (Daily, Grade ½): 1 (3) N (%) | Headache (Daily, Grade ½): 5 (13) N (%) | Hepatic encephalopathy (Daily, Grade ½): 0 N (%) | Hyperbilirubinaemia (Daily, Grade ½): 2 (5) N (%) | Hyperkalemia (Daily, Grade ½): 2 (5) N (%) | Hypocalcemia (Daily, Grade ½): 2 (5) N (%) | Hypokalemia (Daily, Grade ½): 1 (3) N (%) | Hyponatremia (Daily, Grade ½): 1 (3) N (%) | Infection (Daily, Grade ½): 1 (3) N (%) | Insomnia (Daily, Grade ½): 7 (18) N (%) | Mental status changes (Daily, Grade ½): 0 N (%) | Nausea (Daily, Grade ½): 22 (58) N (%) | Pain (Daily, Grade ½): 6 (16) N (%) | Pancreatitis (Daily, Grade ½): 0 N (%) | Peripheral edema (Daily, Grade ½): 5 (13) N (%) | Pleural Effusion (Daily, Grade ½): 1 (3) N (%) | Pneumatosis intestinalis (Daily, Grade ½): 0 N (%) | Pneumonia (Daily, Grade ½): 0 N (%) | Proteinurea (Daily, Grade ½): 0 N (%) | Pyrexia (Daily, Grade ½): 4 (11) N (%) | Renal Failure (Daily, Grade ½): 0 N (%) | Sinusitis (Daily, Grade ½): 4 (11) N (%) | Small intestinal obstruction (ileus) (Daily, Grade ½): 0 N (%) | Troponin I or T increased (Daily, Grade ½): 2 (5) N (%) | Urinary Tract Infection (Daily, Grade ½): 5 (13) N (%) | Vomiting (Daily, Grade ½): 13 (34) N (%) | Weight decreased (Daily, Grade ½): 11 (29) N (%) | White blood cells increased (Daily, Grade ½): 0 N (%)
